Experiments:
[1] = target: T1, Mouse urotensin (mUR2) (Mus musculus, UniProt Q8VIH9); assay: Radioligand binding, mouse urotensin mUR2 membranes, FlashPlate, [125I]-Urotensin II; details: compound at 10 μM; [125I]-Urotensin II, FlashPlate
T1 construct: purchased Perkin Elmer Biosignal
T1 sequence (Q8VIH9 1-385): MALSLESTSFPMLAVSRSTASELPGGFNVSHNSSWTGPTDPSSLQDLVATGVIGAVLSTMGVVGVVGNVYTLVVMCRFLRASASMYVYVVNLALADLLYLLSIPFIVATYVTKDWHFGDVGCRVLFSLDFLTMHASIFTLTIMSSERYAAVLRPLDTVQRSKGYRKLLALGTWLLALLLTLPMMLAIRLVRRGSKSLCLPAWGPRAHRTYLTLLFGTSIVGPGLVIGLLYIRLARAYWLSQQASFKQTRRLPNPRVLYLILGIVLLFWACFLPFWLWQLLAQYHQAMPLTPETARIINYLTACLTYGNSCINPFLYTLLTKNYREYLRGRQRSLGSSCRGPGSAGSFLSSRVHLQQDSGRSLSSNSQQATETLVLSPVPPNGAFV
Procedure, shortened: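 Cloned mouse urotensin (mUR2) receptor membranes from Perkin Elmer Biosignal were immobilized in FlashPlate microplates using a proprietary coating. Each well got 19.5 μl buffer, then 0.5 μl of DMSO, reference ligand, or compound. Adding 5 μl of [125I]-Urotensin II, diluted to 5× final concentration in binding buffer, started binding. Plates were sealed with TopSeal-A and incubated 1 hour at room temperature in the dark. Wells were counted for 30 seconds each on a TopCount after a 60-second delay, and percentage inhibition was calculated.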

[2] = target: T2, Human neuropeptide Y (NPY-Y1) (Homo sapiens, UniProt P25929); assay: Radioligand binding, human neuropeptide Y NPY-Y1 membranes, FlashPlate, [125I]-PYY; details: compound at 10 μM; [125I]-PYY, FlashPlate
T2 construct: purchased Perkin Elmer Biosignal
T2 sequence (P25929 1-384): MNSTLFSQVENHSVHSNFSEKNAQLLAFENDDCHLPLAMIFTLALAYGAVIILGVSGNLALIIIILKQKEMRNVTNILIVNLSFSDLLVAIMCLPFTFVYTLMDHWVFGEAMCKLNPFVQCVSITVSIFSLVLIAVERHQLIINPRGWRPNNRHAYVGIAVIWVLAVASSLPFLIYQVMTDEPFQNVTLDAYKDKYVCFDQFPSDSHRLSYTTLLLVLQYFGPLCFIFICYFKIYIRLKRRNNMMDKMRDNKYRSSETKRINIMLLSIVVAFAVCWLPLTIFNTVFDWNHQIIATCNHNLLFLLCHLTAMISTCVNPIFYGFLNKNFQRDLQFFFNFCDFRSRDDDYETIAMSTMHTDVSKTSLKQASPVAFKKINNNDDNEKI
Procedure, shortened: (§1)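 Cloned human receptor membranes were coated onto FlashPlate wells and incubated with radioligand and compound (added from a 0.5 mM DMSO daughter plate) for 1 hour at room temperature in the dark. Scintillation counting gave percent inhibition, with DMSO defining total and reference ligand defining non-specific binding.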

[3] = target: T3, Human melanocortin (MC5) (Homo sapiens, UniProt P33032); assay: Radioligand binding, human melanocortin MC5 membranes, FlashPlate, [125I]-NDP-αMSH; details: compound at 10 μM; [125I]-NDP-αMSH, FlashPlate
T3 construct: purchased Perkin Elmer Biosignal
Procedure, shortened: as §1

[4] = target: T4, Human Melanocortin (MC3) (Homo sapiens, UniProt P41968); assay: Radioligand binding, human melanocortin MC3 membranes, FlashPlate, [125I]-NDP-αMSH; details: compound at 10 μM; [125I]-NDP-αMSH, FlashPlate
T4 construct: purchased Perkin Elmer Biosignal
Procedure, shortened: as §1

[5] = target: T5, Human opioid (ORL1) (Homo sapiens, UniProt P41146); assay: Radioligand binding, human opioid ORL1 membranes, FlashPlate, [125I]-Nociceptin; details: compound at 10 μM; [125I]-Nociceptin, FlashPlate
T5 construct: purchased Perkin Elmer Biosignal
Procedure, shortened: as §1

[6] = target: T6, Human δ-opioid (DOP) (Homo sapiens, UniProt P41143); assay: Radioligand binding, human δ-opioid (DOP) membranes, FlashPlate, [3H]-Bremazocine; details: compound at 10 μM; [3H]-Bremazocine, FlashPlate
T6 construct: purchased Perkin Elmer Biosignal
Procedure, shortened: as §1

[7] = target: T7, Human κ-Opioid (KOP) (Homo sapiens, UniProt P41145); assay: Radioligand binding, human κ-opioid (KOP) membranes, filtration, [3H]-Diprenorphine; details: compound at 10 μM; [3H]-Diprenorphine, filtration
T7 construct: purchased Perkin Elmer Biosignal
Procedure, shortened: (§2)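 Membranes from cloned human receptors were incubated with compound and radioligand for 1 hour at room temperature. Bound ligand was collected on 0.3% PEI-soaked filters, washed with cold 50 mM Tris-HCl pH 7.4, and counted by scintillation. Percent inhibition was computed against DMSO totals and reference-ligand nonspecific wells.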

[8] = target: T8, Human neurokinin (NK1) (Homo sapiens, UniProt P25103); assay: Radioligand binding, human neurokinin NK1 membranes, filtration, [125I]-Substance P; details: compound at 10 μM; [125I]-Substance P, filtration
T8 construct: purchased Perkin Elmer Biosignal
Procedure, shortened: as §2

[9] = target: T9, Human melanin-concentrating hormone (MCH1) (Homo sapiens, UniProt Q99705); assay: Radioligand binding, human melanin-concentrating hormone MCH1 membranes, FlashPlate, [125I]-S36057; details: compound at 10 μM; [125I]-S36057, FlashPlate
T9 construct: purchased Perkin Elmer Biosignal
Procedure, shortened: as §1

[10] = target: T10, Human μ-opioid (MOP) (Homo sapiens, UniProt P35372); assay: Radioligand binding, human μ-opioid (MOP) membranes, FlashPlate, [3H]-Naloxone; details: compound at 10 μM; [3H]-Naloxone, FlashPlate
T10 construct: purchased Perkin Elmer Biosignal
Procedure, shortened: as §1

[11] = target: T11, Human Melanocortin (MC4) (Homo sapiens, UniProt P32245); assay: Radioligand binding, human melanocortin MC4 membranes, FlashPlate, [125I]-NDP-αMSH; details: compound at 10 μM; [125I]-NDP-αMSH, FlashPlate
T11 construct: purchased Perkin Elmer Biosignal
Procedure, shortened: as §1

T10 sequence (P35372 whole entry): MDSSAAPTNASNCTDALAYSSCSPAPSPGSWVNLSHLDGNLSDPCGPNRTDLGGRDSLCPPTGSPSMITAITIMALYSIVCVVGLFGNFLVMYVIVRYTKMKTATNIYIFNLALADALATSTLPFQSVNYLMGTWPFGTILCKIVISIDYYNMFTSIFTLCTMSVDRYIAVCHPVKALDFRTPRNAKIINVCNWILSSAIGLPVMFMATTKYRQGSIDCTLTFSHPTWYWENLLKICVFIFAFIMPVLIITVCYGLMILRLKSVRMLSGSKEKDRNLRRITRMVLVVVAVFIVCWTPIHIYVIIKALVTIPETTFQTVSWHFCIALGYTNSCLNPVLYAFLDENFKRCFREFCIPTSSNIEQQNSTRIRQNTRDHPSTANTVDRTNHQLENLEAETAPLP
T3 sequence (P33032 whole entry): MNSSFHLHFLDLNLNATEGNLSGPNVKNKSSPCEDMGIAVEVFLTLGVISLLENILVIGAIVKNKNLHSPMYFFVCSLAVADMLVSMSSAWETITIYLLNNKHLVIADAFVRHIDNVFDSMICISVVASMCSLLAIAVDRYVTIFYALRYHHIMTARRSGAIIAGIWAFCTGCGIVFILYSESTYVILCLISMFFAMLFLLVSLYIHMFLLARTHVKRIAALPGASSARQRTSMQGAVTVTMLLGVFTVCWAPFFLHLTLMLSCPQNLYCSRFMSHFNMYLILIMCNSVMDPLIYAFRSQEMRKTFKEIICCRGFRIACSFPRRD
T11 sequence (P32245 whole entry): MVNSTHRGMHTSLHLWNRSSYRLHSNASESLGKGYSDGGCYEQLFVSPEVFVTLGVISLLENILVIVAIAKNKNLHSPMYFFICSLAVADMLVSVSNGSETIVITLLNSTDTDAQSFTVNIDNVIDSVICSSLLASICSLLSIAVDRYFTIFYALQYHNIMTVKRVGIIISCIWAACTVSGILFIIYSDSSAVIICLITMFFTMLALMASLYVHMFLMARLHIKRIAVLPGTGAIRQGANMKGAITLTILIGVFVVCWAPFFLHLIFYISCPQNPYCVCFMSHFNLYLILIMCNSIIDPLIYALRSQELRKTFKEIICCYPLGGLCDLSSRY
T7 sequence (P41145 whole entry): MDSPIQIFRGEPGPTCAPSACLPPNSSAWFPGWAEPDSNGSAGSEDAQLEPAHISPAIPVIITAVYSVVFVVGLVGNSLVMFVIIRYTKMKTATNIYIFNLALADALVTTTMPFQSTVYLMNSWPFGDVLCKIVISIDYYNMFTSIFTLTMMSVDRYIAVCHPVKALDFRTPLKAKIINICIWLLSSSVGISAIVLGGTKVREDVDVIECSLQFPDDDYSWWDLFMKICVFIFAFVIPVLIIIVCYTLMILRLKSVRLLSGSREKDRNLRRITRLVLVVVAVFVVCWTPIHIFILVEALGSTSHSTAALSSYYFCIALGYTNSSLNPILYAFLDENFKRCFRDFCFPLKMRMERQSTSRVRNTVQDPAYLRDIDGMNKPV
T6 sequence (P41143 whole entry): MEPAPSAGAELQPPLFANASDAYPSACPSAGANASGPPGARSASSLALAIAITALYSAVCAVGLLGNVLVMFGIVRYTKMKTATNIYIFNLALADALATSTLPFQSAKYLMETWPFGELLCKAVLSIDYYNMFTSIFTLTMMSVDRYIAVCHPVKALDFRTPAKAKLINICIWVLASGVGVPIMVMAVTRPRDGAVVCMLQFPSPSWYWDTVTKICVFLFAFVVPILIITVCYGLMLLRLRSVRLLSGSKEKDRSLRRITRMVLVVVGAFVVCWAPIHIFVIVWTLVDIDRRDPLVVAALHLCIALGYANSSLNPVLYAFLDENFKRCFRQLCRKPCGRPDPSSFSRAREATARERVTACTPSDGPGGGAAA
T8 sequence (P25103 whole entry): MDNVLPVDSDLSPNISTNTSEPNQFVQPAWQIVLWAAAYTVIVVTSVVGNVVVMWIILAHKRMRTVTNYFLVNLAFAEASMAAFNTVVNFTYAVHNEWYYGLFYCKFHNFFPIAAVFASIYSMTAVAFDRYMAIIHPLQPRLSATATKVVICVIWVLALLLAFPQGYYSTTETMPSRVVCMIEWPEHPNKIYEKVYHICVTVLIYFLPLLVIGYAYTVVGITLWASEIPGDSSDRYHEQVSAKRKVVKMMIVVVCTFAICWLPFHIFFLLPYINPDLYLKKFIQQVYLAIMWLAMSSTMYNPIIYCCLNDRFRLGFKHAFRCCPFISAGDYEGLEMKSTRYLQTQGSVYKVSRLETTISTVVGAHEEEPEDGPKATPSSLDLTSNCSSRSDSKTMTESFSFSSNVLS
T4 sequence (P41968 whole entry): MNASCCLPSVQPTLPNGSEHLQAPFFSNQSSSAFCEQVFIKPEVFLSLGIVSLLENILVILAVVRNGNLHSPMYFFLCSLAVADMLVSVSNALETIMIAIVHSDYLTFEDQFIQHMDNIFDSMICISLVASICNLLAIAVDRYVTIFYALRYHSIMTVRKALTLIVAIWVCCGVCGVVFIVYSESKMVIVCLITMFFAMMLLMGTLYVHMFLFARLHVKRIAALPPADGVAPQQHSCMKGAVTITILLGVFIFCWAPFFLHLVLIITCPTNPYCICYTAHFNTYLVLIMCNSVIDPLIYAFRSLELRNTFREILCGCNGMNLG
T9 sequence (Q99705 whole entry): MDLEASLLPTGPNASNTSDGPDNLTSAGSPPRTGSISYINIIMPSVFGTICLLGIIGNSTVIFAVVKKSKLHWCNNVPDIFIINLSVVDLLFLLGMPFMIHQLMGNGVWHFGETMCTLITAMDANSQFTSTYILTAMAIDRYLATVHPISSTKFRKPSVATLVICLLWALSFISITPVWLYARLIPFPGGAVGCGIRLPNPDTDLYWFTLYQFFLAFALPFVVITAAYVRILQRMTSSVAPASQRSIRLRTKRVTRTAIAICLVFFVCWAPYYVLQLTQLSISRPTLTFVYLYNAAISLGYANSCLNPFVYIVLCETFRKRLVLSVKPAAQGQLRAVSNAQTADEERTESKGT
T5 sequence (P41146 whole entry): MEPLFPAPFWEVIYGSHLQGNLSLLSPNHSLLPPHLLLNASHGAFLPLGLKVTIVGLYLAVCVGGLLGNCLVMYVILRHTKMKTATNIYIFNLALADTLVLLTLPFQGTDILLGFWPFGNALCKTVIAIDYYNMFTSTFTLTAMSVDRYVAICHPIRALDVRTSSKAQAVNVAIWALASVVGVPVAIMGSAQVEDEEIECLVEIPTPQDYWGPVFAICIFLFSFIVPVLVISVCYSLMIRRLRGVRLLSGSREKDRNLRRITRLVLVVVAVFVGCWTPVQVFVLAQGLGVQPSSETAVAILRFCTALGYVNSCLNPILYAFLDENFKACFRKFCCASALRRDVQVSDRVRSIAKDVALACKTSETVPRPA

Row | Structure (SMILES) | A11: inhibition of radioligand binding [1] | A9: inhibition of radioligand binding [2] | A5: inhibition of radioligand binding [3] | A3: inhibition of radioligand binding [4] | A10: inhibition of radioligand binding [5] | A1: inhibition of radioligand binding [6] | A2: inhibition of radioligand binding [7] | A8: inhibition of radioligand binding [8] | A6: inhibition of radioligand binding [9] | A7: inhibition of radioligand binding [10] | A4: inhibition of radioligand binding [11]
1 | COCC1OC(OCc2ccc3ccccc3c2)C(NC(=O)CCN)C(OCc2ccc(-c3ccccc3)cc2)C1O (stereo not drawn) [compound 243] | − (“−” indicates less than 50% inhibition at 10 μM) | − (“−” indicates less than 50% inhibition at 10 μM) | + (“+” indicates greater than 50% inhibition at 10 μM) | − (“−” indicates less than 50% inhibition at 10 μM) | − (“−” indicates less than 50% inhibition at 10 μM) | − (“−” indicates less than 50% inhibition at 10 μM) | − (“−” indicates less than 50% inhibition at 10 μM) | + (“+” indicates greater than 50% inhibition at 10 μM) | − (“−” indicates less than 50% inhibition at 10 μM) | − (“−” indicates less than 50% inhibition at 10 μM) | + (“+” indicates greater than 50% inhibition at 10 μM)
2 | COCC1OC(OCc2ccc3ccccc3c2)C(NC(=O)CCNC(=N)N)C(OCc2ccc(-c3ccccc3)cc2)C1O (stereo not drawn) [compound 244] | − (“−” indicates less than 50% inhibition at 10 μM) | + (“+” indicates greater than 50% inhibition at 10 μM) | + (“+” indicates greater than 50% inhibition at 10 μM) | + (“+” indicates greater than 50% inhibition at 10 μM) | − (“−” indicates less than 50% inhibition at 10 μM) | − (“−” indicates less than 50% inhibition at 10 μM) | − (“−” indicates less than 50% inhibition at 10 μM) | + (“+” indicates greater than 50% inhibition at 10 μM) | + (“+” indicates greater than 50% inhibition at 10 μM) | − (“−” indicates less than 50% inhibition at 10 μM) | + (“+” indicates greater than 50% inhibition at 10 μM)
3 | COCC1OC(OCc2ccc3ccccc3c2)C(NC(=O)CCCN)C(OCc2ccc(-c3ccccc3)cc2)C1O (stereo not drawn) [compound 245] | − (“−” indicates less than 50% inhibition at 10 μM) | − (“−” indicates less than 50% inhibition at 10 μM) | − (“−” indicates less than 50% inhibition at 10 μM) | − (“−” indicates less than 50% inhibition at 10 μM) | − (“−” indicates less than 50% inhibition at 10 μM) | − (“−” indicates less than 50% inhibition at 10 μM) | − (“−” indicates less than 50% inhibition at 10 μM) | + (“+” indicates greater than 50% inhibition at 10 μM) | − (“−” indicates less than 50% inhibition at 10 μM) | − (“−” indicates less than 50% inhibition at 10 μM) | − (“−” indicates less than 50% inhibition at 10 μM)
4 | COCC1OC(OCc2ccc3ccccc3c2)C(NC(=O)CN)C(OCc2ccc3ccccc3c2)C1O (stereo not drawn) [compound 246] | − (“−” indicates less than 50% inhibition at 10 μM) | − (“−” indicates less than 50% inhibition at 10 μM) | − (“−” indicates less than 50% inhibition at 10 μM) | − (“−” indicates less than 50% inhibition at 10 μM) | − (“−” indicates less than 50% inhibition at 10 μM) | − (“−” indicates less than 50% inhibition at 10 μM) | − (“−” indicates less than 50% inhibition at 10 μM) | + (“+” indicates greater than 50% inhibition at 10 μM) | − (“−” indicates less than 50% inhibition at 10 μM) | − (“−” indicates less than 50% inhibition at 10 μM) | − (“−” indicates less than 50% inhibition at 10 μM)
5 | COCC1OC(OCc2ccc3ccccc3c2)C(NC(=O)CNC(=N)N)C(OCc2ccc3ccccc3c2)C1O (stereo not drawn) [compound 247] | − (“−” indicates less than 50% inhibition at 10 μM) | − (“−” indicates less than 50% inhibition at 10 μM) | + (“+” indicates greater than 50% inhibition at 10 μM) | + (“+” indicates greater than 50% inhibition at 10 μM) | − (“−” indicates less than 50% inhibition at 10 μM) | − (“−” indicates less than 50% inhibition at 10 μM) | − (“−” indicates less than 50% inhibition at 10 μM) | + (“+” indicates greater than 50% inhibition at 10 μM) | − (“−” indicates less than 50% inhibition at 10 μM) | − (“−” indicates less than 50% inhibition at 10 μM) | + (“+” indicates greater than 50% inhibition at 10 μM)
6 | COCC1OC(OCc2ccc3ccccc3c2)C(NC(=O)CCN)C(OCc2ccc3ccccc3c2)C1O (stereo not drawn) [compound 248] | − (“−” indicates less than 50% inhibition at 10 μM) | − (“−” indicates less than 50% inhibition at 10 μM) | + (“+” indicates greater than 50% inhibition at 10 μM) | − (“−” indicates less than 50% inhibition at 10 μM) | − (“−” indicates less than 50% inhibition at 10 μM) | − (“−” indicates less than 50% inhibition at 10 μM) | − (“−” indicates less than 50% inhibition at 10 μM) | + (“+” indicates greater than 50% inhibition at 10 μM) | − (“−” indicates less than 50% inhibition at 10 μM) | − (“−” indicates less than 50% inhibition at 10 μM) | − (“−” indicates less than 50% inhibition at 10 μM)

— US20080009418A1, “Selective Inhibitors” (Alchemia LTD., priority 2004, published 2008)
